Laboratory results: the supplement of paper PMC10307832

Experiments:
Experiment in all cases: relative viability (nuclei count vs DMSO), 5 days (fraction); higher = more cells survive
Afatinib + Crizotinib = compound: CN(C)C/C=C/C(=O)Nc1cc2c(Nc3ccc(F)c(Cl)c3)ncnc2cc1O[C@H]1CCOC1 [Afatinib] + C[C@@H](Oc1cc(-c2cnn(C3CCNCC3)c2)cnc1N)c1c(Cl)ccc(F)c1Cl [Crizotinib] (partner 1 µM)
Method in brief: (§1)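 Five library-drug doses in √10 steps were combined with a fixed anchor-drug dose, or a single drug was given alone, by pin tool to lung cancer cell lines in 1536-well plates the day after seeding. Nuclei were stained and counted after 5 days. Relative viability is the nuclei count in treated wells over that in vehicle wells, taken as the median of duplicate plates.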

Afatinib + Phenformin = compound: CN(C)C/C=C/C(=O)Nc1cc2c(Nc3ccc(F)c(Cl)c3)ncnc2cc1O[C@H]1CCOC1 [Afatinib] + N=C(N)NC(=N)NCCc1ccccc1 [Phenformin] (partner 250 µM)
Method in brief: as §1

Afatinib + Navitoclax = compound: CN(C)C/C=C/C(=O)Nc1cc2c(Nc3ccc(F)c(Cl)c3)ncnc2cc1O[C@H]1CCOC1 [Afatinib] + CC1(C)CCC(c2ccc(Cl)cc2)=C(CN2CCN(c3ccc(C(=O)NS(=O)(=O)c4ccc(N[C@H](CCN5CCOCC5)CSc5ccccc5)c(S(=O)(=O)C(F)(F)F)c4)cc3)CC2)C1 [Navitoclax] (partner 0.5 µM)
Method in brief: as §1

Afatinib + Decitabine = compound: CN(C)C/C=C/C(=O)Nc1cc2c(Nc3ccc(F)c(Cl)c3)ncnc2cc1O[C@H]1CCOC1 [Afatinib] + Nc1ncn([C@H]2C[C@H](O)[C@@H](CO)O2)c(=O)n1 [Decitabine] (partner 2 µM)
Method in brief: as §1

Cell Line	relative viability (Afatinib + Crizotinib; first compound 0.005 µM)	relative viability (Afatinib + Crizotinib; first compound 0.01581 µM)	relative viability (Afatinib + Crizotinib; first compound 0.05 µM)	relative viability (Afatinib + Crizotinib; first compound 0.1581 µM)	relative viability (Afatinib + Crizotinib; first compound 0.5 µM)	relative viability (Afatinib + Phenformin; first compound 0.005 µM)	relative viability (Afatinib + Phenformin; first compound 0.01581 µM)	relative viability (Afatinib + Phenformin; first compound 0.05 µM)	relative viability (Afatinib + Phenformin; first compound 0.1581 µM)	relative viability (Afatinib + Phenformin; first compound 0.5 µM)	relative viability (Afatinib + Navitoclax; first compound 0.005 µM)	relative viability (Afatinib + Navitoclax; first compound 0.01581 µM)	relative viability (Afatinib + Navitoclax; first compound 0.05 µM)	relative viability (Afatinib + Navitoclax; first compound 0.1581 µM)	relative viability (Afatinib + Navitoclax; first compound 0.5 µM)	relative viability (Afatinib + Decitabine; first compound 0.005 µM)	relative viability (Afatinib + Decitabine; first compound 0.01581 µM)	relative viability (Afatinib + Decitabine; first compound 0.05 µM)	relative viability (Afatinib + Decitabine; first compound 0.1581 µM)	relative viability (Afatinib + Decitabine; first compound 0.5 µM)
201T	0.981	0.863	0.959	0.958	1	0.475	0.444	0.43	0.398	0.387	1.18	1.2	1.21	1.15	1.23	0.857	0.867	0.844	0.78	0.822
A549	0.995	0.655	0.712	0.695	0.796	0.152	0.154	0.192	0.162	0.15	1.3	1.11	1.2	1.09	1.16	0.28	0.272	0.278	0.232	0.299
A-427	0.999	0.963	1.04	0.845	0.855	0.33	0.248	0.371	0.267	0.32	1.01	0.997	1.05	0.965	0.992	0.556	0.594	0.551	0.502	0.511
ABC-1	1.29	0.98	1.3	0.885	1.13	0.245	0.241	0.264	0.239	0.325	–	–	–	–	–	1.09	–	1.26	0.928	1.05
BEN	0.929	0.941	1.02	0.908	0.916	0.29	0.261	0.251	0.253	0.286	0.0693	0.0755	0.16	0.0734	0.0635	0.727	0.707	0.666	0.736	0.919
CAL-12T	1.06	0.629	0.64	–	0.357	0.57	0.388	0.361	0.244	0.407	1.32	1.12	1.47	–	0.648	–	–	–	–	–
COR-L23	0.803	0.583	0.634	0.603	0.75	0.479	0.446	0.449	0.437	0.45	1.14	0.982	0.948	0.997	1.03	0.504	0.436	0.468	0.47	0.529
COR-L 105	0.618	0.285	0.304	0.221	0.216	0.294	0.22	0.211	0.203	0.249	0.444	0.373	0.315	0.293	0.26	0.552	0.433	0.415	0.338	0.356
Calu-6	0.861	0.654	0.869	0.8	0.755	–	–	–	–	–	0.836	0.786	0.831	0.914	0.81	–	–	–	–	–
ChaGo-K-1	1.27	1.14	1.17	1.16	1.17	0.474	0.466	0.444	0.45	0.431	1.12	0.707	0.979	0.826	1.05	0.558	0.538	0.525	0.525	0.469
EBC-1	0.193	0.174	0.191	0.189	0.209	–	–	–	–	–	0.507	0.457	0.465	0.396	0.343	–	–	–	–	–
EKVX	0.892	0.708	0.551	0.268	0.159	0.218	0.222	0.215	0.129	0.197	0.655	0.46	0.349	0.26	0.197	0.248	0.208	0.218	0.159	0.171
EMC-BAC-2	0.816	0.731	0.698	0.693	0.654	0.502	0.512	0.563	0.462	0.476	1.09	1.1	1.02	0.895	0.906	0.968	0.924	0.98	0.901	1.02
EPLC-272H	0.698	0.72	0.842	0.739	0.575	0.35	0.272	0.231	0.24	0.264	1.21	0.944	0.911	0.742	0.868	0.355	0.328	0.359	0.309	0.348
H3255	0.225	0.191	0.265	0.166	0.226	0.228	0.23	0.203	0.202	0.228	0.101	0.0707	0.086	0.0584	0.076	0.256	0.167	0.179	0.189	0.172
HARA	0.884	1.04	0.763	0.494	0.783	0.391	0.27	0.327	0.376	0.375	1.17	1.12	1.06	0.677	0.866	0.548	–	0.413	0.325	0.349
HCC-15	0.842	0.904	0.804	0.837	0.866	0.487	0.487	0.488	0.47	0.517	0.682	0.719	0.745	0.684	0.686	0.75	0.622	0.625	0.594	0.645

Cell Line	relative viability (Afatinib + Crizotinib; first compound 0.005 µM)	relative viability (Afatinib + Crizotinib; first compound 0.01581 µM)	relative viability (Afatinib + Crizotinib; first compound 0.05 µM)	relative viability (Afatinib + Crizotinib; first compound 0.1581 µM)	relative viability (Afatinib + Crizotinib; first compound 0.5 µM)	relative viability (Afatinib + Phenformin; first compound 0.005 µM)	relative viability (Afatinib + Phenformin; first compound 0.01581 µM)	relative viability (Afatinib + Phenformin; first compound 0.05 µM)	relative viability (Afatinib + Phenformin; first compound 0.1581 µM)	relative viability (Afatinib + Phenformin; first compound 0.5 µM)	relative viability (Afatinib + Navitoclax; first compound 0.005 µM)	relative viability (Afatinib + Navitoclax; first compound 0.01581 µM)	relative viability (Afatinib + Navitoclax; first compound 0.05 µM)	relative viability (Afatinib + Navitoclax; first compound 0.1581 µM)	relative viability (Afatinib + Navitoclax; first compound 0.5 µM)	relative viability (Afatinib + Decitabine; first compound 0.005 µM)	relative viability (Afatinib + Decitabine; first compound 0.01581 µM)	relative viability (Afatinib + Decitabine; first compound 0.05 µM)	relative viability (Afatinib + Decitabine; first compound 0.1581 µM)	relative viability (Afatinib + Decitabine; first compound 0.5 µM)
HCC-44	0.902	0.866	0.786	0.782	0.847	0.233	0.184	0.232	0.395	0.239	1.01	1.01	1.02	0.899	1.13	0.99	0.96	0.981	0.968	1.07
HCC-78	0.308	0.279	0.245	0.252	0.221	0.892	0.515	0.593	0.648	0.559	0.776	0.76	0.62	0.636	0.679	0.726	0.607	0.616	0.635	0.651
IA-LM	1.12	0.728	1.04	0.74	1.11	–	–	–	–	–	0.689	0.821	0.906	0.796	0.933	–	–	–	–	–
LCLC-103H	1	1.14	1.03	0.911	1.17	0.319	0.358	0.326	0.37	0.353	–	–	–	–	–	0.714	0.774	0.727	0.704	0.718
NCI-H358	0.541	0.423	0.387	0.241	0.256	0.266	0.171	0.171	0.163	0.175	–	–	–	–	–	0.191	0.18	0.149	0.163	0.136
NCI-H522	–	–	–	–	–	0.729	0.584	0.643	0.532	0.698	–	–	–	–	–	0.644	0.672	0.736	0.655	0.581
NCI-H650	0.856	0.674	0.72	1.01	0.683	0.498	0.46	0.446	0.498	0.351	–	–	–	–	–	0.321	0.323	0.334	0.334	0.308
NCI-H661	1.25	1.03	0.996	0.838	0.773	0.292	0.255	0.253	0.247	0.244	–	–	–	–	–	0.502	0.428	0.44	0.391	0.401
NCI-H1299	1.01	0.961	0.983	0.97	0.934	–	–	–	–	–	1.02	1.02	1.13	1.11	1.06	–	–	–	–	–
NCI-H1395	–	–	–	–	–	0.476	0.41	0.447	0.442	0.449	1.31	0.999	1.12	1.17	1.2	0.773	0.741	0.744	0.657	0.672
NCI-H1563	0.844	0.835	0.872	0.795	0.882	0.625	0.667	0.649	0.651	0.623	–	–	–	–	–	–	–	–	–	–
NCI-H1648	–	–	–	–	–	–	–	–	–	–	–	–	–	–	–	0.551	0.419	0.378	0.417	0.34
NCI-H1703	0.824	0.694	0.581	0.731	0.561	–	–	–	–	–	1.22	0.95	1.34	0.746	0.641	–	–	–	–	–
NCI-H1793	–	–	–	–	–	0.244	0.316	0.325	0.273	0.321	0.404	0.348	0.356	0.357	0.32	0.43	0.344	0.329	0.27	0.417
NCI-H2228	0.455	0.46	0.345	–	0.34	0.279	0.273	0.31	0.257	0.242	0.864	0.906	0.865	–	0.51	–	–	–	–	–
NCI-H2342	–	–	–	–	–	0.641	0.488	0.575	0.519	0.477	–	–	–	–	–	0.706	0.698	0.718	0.569	0.573
SW 900	–	–	–	–	–	0.642	0.499	0.682	0.486	0.399	–	–	–	–	–	0.502	0.334	0.378	0.398	0.443
